The source of these data is patent publication US7456156B2, “Aryl boronic acids for treating obesity” (Genzyme Corporation, priority 2001, dated 2008).

The subject of this assay is fat absorption through lipase inhibition. In words: In vivo infusion assay in rats (olive oil gavage, triglyceride recovered from intestinal contents). To be noted: rats gavaged with 4 mL olive oil emulsion with drug after 18 hour fast, intestinal contents after 8 hours; for In Vivo Infusion Assay in Rats ED50 (mg/g fat) or estimate: dose at half the maximum recoverable triglyceride. Here is the method: Test compounds were dissolved in DMSO or dionized water. […] Samples were stored at −80° C. until lyophilization.
3 milliliters of hexane was added to each tube then it was capped and vortexed for 15 seconds at high speed. 3 milliliters of 1 N HCl was added then samples were subjected to wrist-action shaking for 1 hour.
The data was expressed as follows. […] The milligrams/liters values obtained from the HPLC analysis were entered.

Take `C[N+](C)(C)CCCCCCCCCCCSCC(=O)c1ccc(B(O)O)cc1` [4-(14′-trimethylammonium-3′-thia-1′-keto-tetradecyl)-phenyl-boronic acid bromide]: the “In Vivo Infusion Assay in Rats ED50 (mg/g fat) or estimate” value is reported as 8 mg/g fat. Moreover, where the note is “Rattus norvegicus, po, dose per body weight, read-out: In Vivo Infusion Assay in Rats Ed50 (mg/kg body wt) or estimate”, the ED50 is 60 mg/kg.

As to “4-(14′-triethylammonium-3′-thia-1′-keto-tetradecyl)-3-phenyl-boronic acid bromide”, the “In Vivo Infusion Assay in Rats ED50 (mg/g fat) or estimate” value is recorded as 11 mg/g fat. Further, for the setting “dose per body weight”, the “In Vivo Infusion Assay in Rats Ed50 (mg/kg body wt) or estimate” value is recorded as 82.5 mg/kg body wt.

“4-(14′-trimethylammonium-3′-thia-1′-keto-tridecyl)-3-fluorophenyl-boronic acid bromide”: the “In Vivo Infusion Assay in Rats ED50 (mg/g fat) or estimate” value is reported as 2 mg/g fat. Also, the “In Vivo Infusion Assay in Rats Ed50 (mg/kg body wt) or estimate” value (dose per body weight) is 15 mg/kg body wt.
